Results: ChEMBL document CHEMBL1123299, “New antiarrhythmic agents. 2,2,5,5-Tetramethyl-3-pyrroline-3-carboxamides and 2,2,5,5-tetramethylpyrrolidine-3-carboxamindes” (J Med Chem, 1986)

Tests used:
Rattus norvegicus [1] = experiment: Effective dose against aconitine-induced arrhythmia after intravenal administration in anesthetized rats; assay type: functional
Rattus norvegicus [2] = experiment: Tested for incidence of arrhythmias in rats after a intravenal administration of 2 mg/kg expressed as no. of positive cases out of no. of tested cases (10); assay type: functional
[3] = Acute toxicity determined after intravenal administration in mice; assay type: organism-based; settings: mouse, in vivo, iv
Rattus norvegicus [4] = organism: Rattus norvegicus; experiment: Relative potency with reference to quinidine; assay type: functional
Rattus norvegicus [5] = experiment: Incidence of arrhythmias in rats after a intravenal administration at 4 mg/kg, expressed as no. of positive cases out of no. of tested cases (10); assay type: functional
Cavia porcellus [6] = experiment: Amount of ouabain needed for production of ventricular fibrillation at a dose of 2 mg/kg (iv given 5 min prior) in guinea pig; assay type: functional, Cardiac ventricle
Cavia porcellus [7] = experiment: Amount of ouabain needed for production of ventricular arrhythmias that causes death in guinea pig by cardiac arrest at a dose of 2 mg/kg iv given 5 min prior; assay type: functional, Cardiac ventricle
Cavia porcellus [8] = experiment: Amount of ouabain needed for production of ventricular extra-systoles at a dose of 2 mg/kg (iv given 5 min prior) in guinea pig; assay type: functional, Cardiac ventricle

COc1cc(CNCCCNC(=O)C2=CC(C)(C)NC2(C)C)ccc1O
ED150 (Rattus norvegicus [1]): 0.47 mg/kg | No. of positive cases (Rattus norvegicus [2]): 10 | LD50 [3]: 8.7 mg/kg | Relative potency (Rattus norvegicus [4]): 25.3

Cc1cccc(C)c1NC(=O)CNC(=O)C1CC(C)(C)NC1(C)C (centres undefined)
No. of positive cases (Rattus norvegicus [5]): 10 | ED150 (Rattus norvegicus [1]): 0.84 mg/kg | Average dose (Cavia porcellus [6]): 0.2909 mg/kg | LD50 [3]: 40 mg/kg | Average dose (Cavia porcellus [7]): 0.3199 mg/kg | Average dose (Cavia porcellus [8]): 0.1969 mg/kg | Relative potency (Rattus norvegicus [4]): 14.2

CC1(C)C=C(C(=O)NCCCNCc2cccc(Oc3ccccc3)c2)C(C)(C)N1
ED150 (Rattus norvegicus [1]): 0.96 mg/kg | No. of positive cases (Rattus norvegicus [2]): 10 | LD50 [3]: 11 mg/kg | Relative potency (Rattus norvegicus [4]): 12.4

C=CCc1cc(C)ccc1OCC(=O)NCCNC(=O)C1=CC(C)(C)NC1(C)C
No. of positive cases (Rattus norvegicus [2]): 3 | LD50 [3]: 19 mg/kg

Cc1cccc(C)c1NC(=O)C(NC(=O)C1=CC(C)(C)NC1(C)C)c1ccccc1 (centres undefined)
ED150 (Rattus norvegicus [1]): 0.78 mg/kg | No. of positive cases (Rattus norvegicus [2]): 10 | LD50 [3]: 7.6 mg/kg | Relative potency (Rattus norvegicus [4]): 15.3

CC1(C)C=C(C(=O)NCCCN2C(=O)c3ccccc3C2=O)C(C)(C)N1
Average dose (Cavia porcellus [6]): 0.3455 mg/kg | No. of positive cases (Rattus norvegicus [2]): 10 | Average dose (Cavia porcellus [7]): 0.3825 mg/kg | Average dose (Cavia porcellus [8]): 0.2369 mg/kg | Relative potency (Rattus norvegicus [4]): 4.6

CC1(C)C=C(C(=O)NCCCNCc2ccc(Oc3ccccc3)cc2)C(C)(C)N1
No. of positive cases (Rattus norvegicus [5]): 10 | ED150 (Rattus norvegicus [1]): 1.3 mg/kg | LD50 [3]: 23 mg/kg | Relative potency (Rattus norvegicus [4]): 9.2

CC1(C)C=C(C(=O)NCCCNCc2cccs2)C(C)(C)N1
No. of positive cases (Rattus norvegicus [5]): 7 | ED150 (Rattus norvegicus [1]): 5.3 mg/kg | LD50 [3]: 65 mg/kg | Relative potency (Rattus norvegicus [4]): 2.2

C=CCOc1c(CNCCCNC(=O)C2=CC(C)(C)NC2(C)C)cccc1OC
No. of positive cases (Rattus norvegicus [5]): 10 | ED150 (Rattus norvegicus [1]): 1.7 mg/kg | LD50 [3]: 15 mg/kg | Relative potency (Rattus norvegicus [4]): 7

C=CCOc1ccc(CNCCCNC(=O)C2=CC(C)(C)NC2(C)C)cc1
No. of positive cases (Rattus norvegicus [5]): 6 | ED150 (Rattus norvegicus [1]): 2.9 mg/kg | LD50 [3]: 28 mg/kg | Relative potency (Rattus norvegicus [4]): 4.1

Cc1cccc(C)c1NC(=O)CNC(=O)C1=CC(C)(C)NC1(C)C
No. of positive cases (Rattus norvegicus [5]): 10 | ED150 (Rattus norvegicus [1]): 2.4 mg/kg | Average dose (Cavia porcellus [6]): 0.2842 mg/kg | LD50 [3]: 53 mg/kg | Average dose (Cavia porcellus [7]): 0.3314 mg/kg | Average dose (Cavia porcellus [8]): 0.2142 mg/kg | Relative potency (Rattus norvegicus [4]): 4.9

C/C=C/c1ccc(OCC(=O)NCCCNC(=O)C2=CC(C)(C)NC2(C)C)c(OC)c1
No. of positive cases (Rattus norvegicus [5]): 7 | Average dose (Cavia porcellus [6]): 0.2509 mg/kg | LD50 [3]: 30 mg/kg | Average dose (Cavia porcellus [7]): 0.2847 mg/kg | Average dose (Cavia porcellus [8]): 0.2011 mg/kg | Relative potency (Rattus norvegicus [4]): 5.4

C=CCc1ccc(OC(C)C(=O)NCCNC(=O)C2=CC(C)(C)NC2(C)C)c(OC)c1 (centres undefined)
ED150 (Rattus norvegicus [1]): 2.8 mg/kg | No. of positive cases (Rattus norvegicus [2]): 7 | LD50 [3]: 9.3 mg/kg | Relative potency (Rattus norvegicus [4]): 4.3

CC1(C)C=C(C(=O)NCCCNCc2ccccc2OCC(N)=O)C(C)(C)N1
No. of positive cases (Rattus norvegicus [2]): 1 | LD50 [3]: 10 mg/kg

Cc1cccc(C)c1NC(=O)C(C)NCCCNC(=O)C1=CC(C)(C)NC1(C)C (centres undefined)
No. of positive cases (Rattus norvegicus [5]): 10 | ED150 (Rattus norvegicus [1]): 1.3 mg/kg | LD50 [3]: 26 mg/kg | Relative potency (Rattus norvegicus [4]): 9.1

CC1(C)C=C(C(=O)NCCCNC(=O)COc2ccccc2)C(C)(C)N1
No. of positive cases (Rattus norvegicus [5]): 10 | ED150 (Rattus norvegicus [1]): 2.6 mg/kg | LD50 [3]: 49 mg/kg | Relative potency (Rattus norvegicus [4]): 4.6

COc1cccc(CNCCCNC(=O)C2=CC(C)(C)NC2(C)C)c1O
No. of positive cases (Rattus norvegicus [5]): 10 | ED150 (Rattus norvegicus [1]): 3.4 mg/kg | LD50 [3]: 26 mg/kg | Relative potency (Rattus norvegicus [4]): 3.5

Cc1cccc(C)c1NC(=O)C(C)NC(=O)C1=CC(C)(C)NC1(C)C (centres undefined)
No. of positive cases (Rattus norvegicus [5]): 10 | ED150 (Rattus norvegicus [1]): 1.9 mg/kg | Average dose (Cavia porcellus [6]): 0.3253 mg/kg | LD50 [3]: 15 mg/kg | Average dose (Cavia porcellus [7]): 0.361 mg/kg | Average dose (Cavia porcellus [8]): 0.2089 mg/kg | Relative potency (Rattus norvegicus [4]): 6.3

C/C=C/c1ccc(OCC(=O)NCC(C)(C)CNC(=O)C2=CC(C)(C)NC2(C)C)c(OC)c1
No. of positive cases (Rattus norvegicus [5]): 6 | ED150 (Rattus norvegicus [1]): 3.9 mg/kg | LD50 [3]: 31 mg/kg | Relative potency (Rattus norvegicus [4]): 3.1

Cc1cccc(C)c1NC(=O)C(C)NCCCNC(=O)C1CC(C)(C)NC1(C)C (centres undefined)
No. of positive cases (Rattus norvegicus [5]): 10 | ED150 (Rattus norvegicus [1]): 2.3 mg/kg | LD50 [3]: 39 mg/kg | Relative potency (Rattus norvegicus [4]): 5.1

CC1(C)C=C(C(=O)NCCCNCc2cccc(O)c2)C(C)(C)N1.Cl
No. of positive cases (Rattus norvegicus [5]): 4 | ED150 (Rattus norvegicus [1]): 8.5 mg/kg | LD50 [3]: 13 mg/kg | Relative potency (Rattus norvegicus [4]): 1.4

C=C[C@H]1CN2CC[C@H]1C[C@@H]2[C@@H](O)c1ccnc2ccc(OC)cc12 [QUINIDINE]
Average dose (Cavia porcellus [6]): 0.2911 mg/kg | Average dose (Cavia porcellus [7]): 0.3139 mg/kg | Average dose (Cavia porcellus [8]): 0.1954 mg/kg

COc1ccc(CNCCCNC(=O)C2=CC(C)(C)NC2(C)C)c(OC)c1
No. of positive cases (Rattus norvegicus [5]): 9 | ED150 (Rattus norvegicus [1]): 1.7 mg/kg | LD50 [3]: 16 mg/kg | Relative potency (Rattus norvegicus [4]): 7

CC1(C)C=C(C(=O)NCC(O)CNCc2cccs2)C(C)(C)N1 (centres undefined)
No. of positive cases (Rattus norvegicus [5]): 8 | ED150 (Rattus norvegicus [1]): 7.6 mg/kg | LD50 [3]: 49 mg/kg | Relative potency (Rattus norvegicus [4]): 1.6

C=CCc1cc(C)ccc1OCC(=O)NCCCNC(=O)C1=CC(C)(C)NC1(C)C
No. of positive cases (Rattus norvegicus [2]): 8 | Relative potency (Rattus norvegicus [4]): 4.9

COc1cc(OCc2ccccc2)ccc1CNCCCNC(=O)C1=CC(C)(C)NC1(C)C
No. of positive cases (Rattus norvegicus [5]): 10 | ED150 (Rattus norvegicus [1]): 0.69 mg/kg | LD50 [3]: 13 mg/kg | Relative potency (Rattus norvegicus [4]): 17.2

COc1cc(CNCCCNC(=O)C2=CC(C)(C)NC2(C)C)cc(OC)c1OC
No. of positive cases (Rattus norvegicus [5]): 9 | ED150 (Rattus norvegicus [1]): 3.8 mg/kg | LD50 [3]: 22 mg/kg | Relative potency (Rattus norvegicus [4]): 3.1

CC1(C)C=C(C(=O)NCCCNCc2ccc(OCc3ccccc3)cc2)C(C)(C)N1
ED150 (Rattus norvegicus [1]): 1.3 mg/kg | No. of positive cases (Rattus norvegicus [2]): 8 | LD50 [3]: 20 mg/kg | Relative potency (Rattus norvegicus [4]): 9.2

C=CCOc1ccc(CNCCCNC(=O)C2=CC(C)(C)NC2(C)C)cc1OC
No. of positive cases (Rattus norvegicus [5]): 10 | ED150 (Rattus norvegicus [1]): 2.2 mg/kg | LD50 [3]: 21 mg/kg | Relative potency (Rattus norvegicus [4]): 5.4

CC1(C)C=C(C(=O)NCC(O)CNC(=O)c2cccs2)C(C)(C)N1 (centres undefined)
No. of positive cases (Rattus norvegicus [5]): 7 | ED150 (Rattus norvegicus [1]): 6.7 mg/kg | LD50 [3]: 65 mg/kg | Relative potency (Rattus norvegicus [4]): 1.77

CC1(C)C=C(C(=O)NCCCNCc2ccccc2OCc2ccccc2)C(C)(C)N1
ED150 (Rattus norvegicus [1]): 0.6 mg/kg | No. of positive cases (Rattus norvegicus [2]): 10 | LD50 [3]: 9 mg/kg | Relative potency (Rattus norvegicus [4]): 19.8

C=CCOc1cccc(CNCCCNC(=O)C2=CC(C)(C)NC2(C)C)c1
ED150 (Rattus norvegicus [1]): 2.7 mg/kg | No. of positive cases (Rattus norvegicus [2]): 7 | LD50 [3]: 34 mg/kg | Relative potency (Rattus norvegicus [4]): 4.4

CC1(C)C=C(C(=O)NCCCNCc2ccc(C(F)(F)F)cc2)C(C)(C)N1
No. of positive cases (Rattus norvegicus [5]): 7 | ED150 (Rattus norvegicus [1]): 4.8 mg/kg | LD50 [3]: 65 mg/kg | Relative potency (Rattus norvegicus [4]): 2.5

C=CCOc1ccccc1CNCCCNC(=O)C1CC(C)(C)NC1(C)C (centres undefined)
ED150 (Rattus norvegicus [1]): 2.1 mg/kg | No. of positive cases (Rattus norvegicus [2]): 10 | LD50 [3]: 13 mg/kg | Relative potency (Rattus norvegicus [4]): 5.7

C=CCc1ccc(OCC(=O)NCCNC(=O)C2=CC(C)(C)NC2(C)C)c(OC)c1
No. of positive cases (Rattus norvegicus [5]): 7 | ED150 (Rattus norvegicus [1]): 6.3 mg/kg | LD50 [3]: 11 mg/kg | Relative potency (Rattus norvegicus [4]): 1.9

CC1(C)C=C(C(=O)NCCCNCc2cccc(OCc3ccccc3)c2)C(C)(C)N1
ED150 (Rattus norvegicus [1]): 0.74 mg/kg | No. of positive cases (Rattus norvegicus [2]): 10 | LD50 [3]: 7 mg/kg | Relative potency (Rattus norvegicus [4]): 16.1
